The nature of data set [1]: Acrylamide quenching of W30 tryptophan fluorescence. In kind it is physicochemical.
The target of the next data set is T1, Kv2.1 channel (Rattus norvegicus, UniProt P15387, A366D/I383M/K360G/K386V/S367A/T359S/Y384T).
T1 sequence (P15387 1-857 T359S/K360G/A366D/S367A/I383M/Y384T/K386V): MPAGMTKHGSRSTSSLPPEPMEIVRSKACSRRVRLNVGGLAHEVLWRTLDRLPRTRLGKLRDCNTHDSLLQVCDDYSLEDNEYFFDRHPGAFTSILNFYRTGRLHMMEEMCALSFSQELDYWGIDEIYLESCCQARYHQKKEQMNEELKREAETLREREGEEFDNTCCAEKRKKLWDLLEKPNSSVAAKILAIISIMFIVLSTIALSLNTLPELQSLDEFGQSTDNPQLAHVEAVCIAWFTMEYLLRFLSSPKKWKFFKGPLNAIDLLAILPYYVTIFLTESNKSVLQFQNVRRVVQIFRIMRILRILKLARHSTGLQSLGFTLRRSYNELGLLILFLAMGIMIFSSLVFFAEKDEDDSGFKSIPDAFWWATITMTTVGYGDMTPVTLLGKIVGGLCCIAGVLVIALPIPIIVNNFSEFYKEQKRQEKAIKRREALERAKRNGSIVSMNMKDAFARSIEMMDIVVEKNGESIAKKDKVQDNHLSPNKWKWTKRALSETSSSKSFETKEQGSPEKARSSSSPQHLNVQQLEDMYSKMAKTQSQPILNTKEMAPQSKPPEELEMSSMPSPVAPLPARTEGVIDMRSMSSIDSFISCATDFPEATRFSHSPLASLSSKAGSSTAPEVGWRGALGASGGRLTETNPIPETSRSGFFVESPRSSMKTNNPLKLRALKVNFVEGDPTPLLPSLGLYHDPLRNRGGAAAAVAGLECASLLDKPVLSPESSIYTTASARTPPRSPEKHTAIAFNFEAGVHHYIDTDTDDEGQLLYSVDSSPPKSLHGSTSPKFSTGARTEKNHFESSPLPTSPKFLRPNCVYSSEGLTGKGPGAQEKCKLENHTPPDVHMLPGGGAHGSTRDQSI
Description: Two-electrode voltage-clamp recording of Kv2.1 expressed in oocytes. In kind it is cell-based. On the technique in general: Two-electrode voltage clamp is typically applied to oocytes expressing channels or transporters.

For data set [2] the following is noted: for F/F0 max: 1:1 POPG:POPC LUVs; for F/F0 max / λmax: HEB, 100 mM K+.
[3] abbreviates: toxin:lipid 2 μM:0.9 mM, HEB pH 7, n = 3.

Where two headings read alike, the source gives them in different places. Peptide text beside a SMILES is read from it.

Turning to `CC(C)C[C@@H]1NC(=O)[C@H](Cc2c[nH]cn2)NC(=O)[C@H](CCCCN)NC(=O)[C@@H]2CSSC[C@H](NC(=O)[C@@H](N)CCC(=O)O)C(=O)N[C@@H](CCCNC(=N)N)C(=O)N[C@@H](Cc3ccc(O)cc3)C(=O)N[C@@H](CC(C)C)C(=O)N[C@@H](Cc3ccccc3)C(=O)NCC(=O)NCC(=O)N[C@H]3CSSC[C@H](NC(=O)CNC1=O)C(=O)N[C@@H](CCCCN)C(=O)N[C@@H](Cc1ccccc1)C(=O)N[C@@H](CCCNC(=N)N)C(=O)N[C@@H](CC(=O)O)C(=O)N[C@@H](CCCCN)C(=O)N[C@@H](Cc1ccc(O)cc1)C(=O)N[C@H](C(=O)N[C@@H](C)C(=O)N[C@@H](Cc1c[nH]c4ccccc14)C(=O)N[C@@H](CC(=O)O)C(=O)N[C@@H](Cc1ccccc1)C(=O)N[C@H](C(=O)N[C@@H](Cc1ccccc1)C(=O)N[C@@H](CO)C(=O)O)[C@@H](C)O)CSSC[C@H](NC(=O)[C@H](CC(=O)O)NC(=O)[C@H](CO)NC(=O)[C@H]([C@@H](C)O)NC(=O)[C@H]([C@@H](C)O)NC(=O)[C@H](CCCCN)NC3=O)C(=O)N2` [Hanatoxin] (HELM PEPTIDE1{E.C.R.Y.L.F.G.G.C.K.T.T.S.D.C.C.K.H.L.G.C.K.F.R.D.K.Y.C.A.W.D.F.T.F.S}$PEPTIDE1,PEPTIDE1,2:R3-16:R3|PEPTIDE1,PEPTIDE1,9:R3-21:R3|PEPTIDE1,PEPTIDE1,15:R3-28:R3$$$V2.0; N-terminus and C-terminus assumed), the “Stern-Volmer constant (KSV), Solution” value in data set [1] (toxin 2 μM in solution, no lipid vesicles, n = 3) worked out at 48 ± 3 M⁻¹. Also, the “Stern-Volmer constant (KSV), POPC, HEB” value in data set [1] (setting [3]) turned out to be 10 ± 0.5 M⁻¹. Besides, the “Stern-Volmer constant (KSV), POPC:POPG, HEB” value in data set [1] (setting [3]) was determined as 7 ± 0.1 M⁻¹. Also, the “Stern-Volmer constant (KSV), POPC:POPG, PB” value in data set [1] (toxin:lipid 2 μM:0.9 mM, PB (10 mM HEPES, 100 mM KCl, 1 mM MgCl2, 0.3 mM CaCl2, pH 7.6), n = 3) was 18 ± 0.2 M⁻¹. Moreover, the “Stern-Volmer constant (KSV), POPC, PB” value in data set [1] (toxin:lipid 2 μM:0.9 mM, PB pH 7.6, n = 3) is 23 ± 0.7 M⁻¹. Besides, the “effect on Kv2.1 channel opening” value on Kv2.1 channel (4 μM hanatoxin in external solution, oocytes, n = 3) is recorded as “pronounced inhibition of opening at negative voltages”. Also, the “time for channel activity to recover to control values after toxin removal” value at Kv2.1 channel (control (untreated) oocytes, 500 nM hanatoxin) was ~1,000 s. The F/F0 max in data set [2] (1 mM free Ca2+, n = 3) was found to be 2.1 ± 0.1; in data set [2] (pH 7, n = 3), 2.0 ± 0.02. The λmax in data set [2] (+POPG:POPC vesicles, 1 mM free Ca2+) is 350.0 nm; in data set [2] (+POPG:POPC vesicles, pH 7), 344.3 nm; in data set [2] (toxin in solution without lipid, 1 mM free Ca2+) it was 353.7 nm. Moreover, the Kx result in data set [2] (as printed in legend, anionic vesicles, HEB with 100 mM KCl, n = 3) was “(5.3 ± 0.03) × 10^5”. In addition, the “blue shift in fluorescence emission spectrum” value in data set [2] (upon addition of 1:1 POPC:POPG vesicles (2.4 mM), HEB pH 7) came to 10.9 nm.
